What was measured:
Assay in all cases: relative viability (nuclei count vs DMSO), 5 days (fraction); higher = more cells survive
Obatoclax + Phenformin = compound: COC1=CC(c2cc3ccccc3[nH]2)=N/C1=C\c1[nH]c(C)cc1C [Obatoclax] + N=C(N)NC(=N)NCCc1ccccc1 [Phenformin] (partner 250 µM)
In short: (§1)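 Lung cancer cell lines were seeded in 1536-well plates and dosed by pin tool the next day, with either a single drug or a fixed anchor-drug dose combined with five library-drug doses (not always all listed) spaced in √10 steps. Five days later, one step fixed the cells and stained their nuclei (final 0.05% Triton X-100, 1% formaldehyde, 1 ug/ml Hoechst), and nuclei were counted on 4× images. Relative viability is the nuclei count in treated wells divided by the count in vehicle wells, and each value is the median of duplicate plates.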

Bortezomib + Pictilisib = compound: CC(C)C[C@H](NC(=O)[C@H](Cc1ccccc1)NC(=O)c1cnccn1)B(O)O [Bortezomib] + CS(=O)(=O)N1CCN(Cc2cc3nc(-c4cccc5[nH]ncc45)nc(N4CCOCC4)c3s2)CC1 [Pictilisib] (partner 1 µM)
In short: as §1

[1] = compound: CC1=CC(=NN1)NC2=CC(=NC(=N2)/C=C/C3=CC=CC=C3)N4CCN(CC4)C + CC(=O)Nc1cccc(-n2c(=O)n(C3CC3)c(=O)c3c(Nc4ccc(I)cc4F)n(C)c(=O)c(C)c32)c1 [Trametinib] (partner 0.02 µM)
In short: as §1

[2] = compound: CC1=CC(=NN1)NC2=CC(=NC(=N2)/C=C/C3=CC=CC=C3)N4CCN(CC4)C + CS(=O)(=O)N1CCN(Cc2cc3nc(-c4cccc5[nH]ncc45)nc(N4CCOCC4)c3s2)CC1 [Pictilisib] (partner 1 µM)
In short: as §1

Cell Line	relative viability (Obatoclax + Phenformin; first compound 0.01 µM)	relative viability (Obatoclax + Phenformin; first compound 0.03162 µM)	relative viability (Obatoclax + Phenformin; first compound 0.1 µM)	relative viability (Obatoclax + Phenformin; first compound 0.3162 µM)	relative viability (Obatoclax + Phenformin; first compound 1 µM)	relative viability (Bortezomib + Pictilisib; first compound 0.0002 µM)	relative viability (Bortezomib + Pictilisib; first compound 0.000632 µM)	relative viability (Bortezomib + Pictilisib; first compound 0.002 µM)	relative viability (Bortezomib + Pictilisib; first compound 0.006325 µM)	relative viability (Bortezomib + Pictilisib; first compound 0.02 µM)	relative viability ([1]; first compound 0.08 µM)	relative viability ([1]; first compound 0.253 µM)	relative viability ([1]; first compound 0.8 µM)	relative viability ([1]; first compound 2.53 µM)	relative viability ([1]; first compound 8 µM)	relative viability ([2]; first compound 0.08 µM)	relative viability ([2]; first compound 0.253 µM)	relative viability ([2]; first compound 0.8 µM)	relative viability ([2]; first compound 2.53 µM)	relative viability ([2]; first compound 8 µM)
NCI-H2087	0.423	0.372	0.513	0.344	0.193	0.77	0.74	0.7	0.159	0.0891	0.155	0.18	0.151	0.072	0.0577	0.828	0.542	0.877	0.447	0.141
COR-L 105	0.4	0.53	0.637	0.333	0.266	0.377	0.324	0.389	0.322	0.326	0.427	0.453	0.416	0.276	0.27	0.461	0.429	0.353	0.205	0.223
LCLC-97TM1	0.417	0.408	0.458	0.485	0.421	0.177	0.178	0.195	0.132	0.207	0.186	0.142	0.209	0.182	0.0966	0.171	0.102	0.161	0.105	0.0788
NCI-H520	0.677	0.562	0.589	0.532	0.455	0.269	0.283	0.229	0.184	0.184	0.758	0.531	0.543	0.12	0.111	0.335	0.306	0.251	0.156	0.127
NCI-H1993	0.481	0.537	0.531	0.478	0.48	0.915	0.654	0.804	0.528	0.625	0.506	0.541	0.408	0.616	0.509	0.817		0.744	0.808	0.599
NCI-H1437	0.242	0.317	0.314	0.296	0.246	0.41	0.512	0.434	0.0867	0.0795	0.532	0.621	0.577	0.272	0.223	0.57	0.446	0.416	0.271	0.0592
LC-2-ad	0.637	0.49	0.541	0.585	0.499	0.558		0.486	0.0865	0.104	0.873	0.89	0.868	0.463	0.196	0.46	0.356	0.247	0.0963	0.0784
HARA	0.427	0.432	0.463	0.455	0.357	0.479	0.529	0.481	0.0462	0.0659	0.824	0.448	0.65	0.148	0.0692	0.396	0.37	0.348	0.204	0.0756
NCI-H1975	0.438	0.427		0.355	0.228	0.271	0.22	0.173	0.105	0.115	0.343	0.333	0.4	0.254	0.105	0.284	0.307	0.25	0.128	0.0893
NCI-H2085	0.707	0.668	0.662	0.581	0.317	0.404	0.465	0.447	0.39	0.218	0.594	0.48	0.535	0.261	0.214	0.437	0.39	0.431	0.18	0.236
NCI-H522	0.614	0.62	0.633	0.688	0.603						0.856	0.676	0.823	0.688	0.362					
ABC-1	0.226	0.215	0.291	0.22	0.297	0.285	0.372	0.292	0.24	0.258						0.764	0.76	0.792	0.284	0.173
NCI-H1563	0.621	0.696	0.629	0.683	0.586	0.68	0.622	0.655	0.538	0.486						0.624	0.655	0.584	0.582	0.355
NCI-H1703						0.259	0.208	0.146	0.128	0.121							0.24	0.179	0.182	0.131
NCI-H1648											0.47	0.412	0.497	0.435	0.316					
SW 900	0.556	0.584	0.726	0.493	0.325						0.957	0.625	0.839	0.215	0.0981					
EBC-1						0.415	0.408	0.177	0.0912	0.0987						0.394	0.451	0.392	0.143	0.0897
NCI-H1299						0.722	0.776	0.511	0.0727	0.0315						0.725	0.853	0.596	0.107	0.0675
A549	0.131	0.248	0.035	0.222	0.0807	0.507	0.531	0.468	0.049	0.0452						0.464	0.592	0.332	0.0385	0.0281
NCI-H1623	0.626	0.578	0.515	0.598	0.568															
IA-LM						0.299	0.321	0.278	0.0319	0.0054						0.319	0.505	0.378	0.173	0.0595
